In publication PMC12118337, “Development of a Peptide Inhibitor Targeting the C‐SH2 Domain of the SHP2 Phosphatase” (Chembiochem, 2025):
Residues, ends and D or L forms follow the SMILES beside them. *: point of attachment. 5FAM = O=C1OC2(c3ccc(O)cc3Oc3cc(O)ccc32)c2ccc(C(=O)*)cc21; X1 = O=C(O)C(C(=O)O)*

Target: T1, SHP2 PTP domain (Homo sapiens, UniProt Q06124)
T1 construct: SHP2 N-SH2 domain (1–105), C-SH2 domain (106–220), PTP domain (224–541) and; His6 (pETM22 vector) (N, cleaved yes); made in house; host or cells: E. coli BL21(DE3) Tuner
T1 sequence (Q06124 224-541): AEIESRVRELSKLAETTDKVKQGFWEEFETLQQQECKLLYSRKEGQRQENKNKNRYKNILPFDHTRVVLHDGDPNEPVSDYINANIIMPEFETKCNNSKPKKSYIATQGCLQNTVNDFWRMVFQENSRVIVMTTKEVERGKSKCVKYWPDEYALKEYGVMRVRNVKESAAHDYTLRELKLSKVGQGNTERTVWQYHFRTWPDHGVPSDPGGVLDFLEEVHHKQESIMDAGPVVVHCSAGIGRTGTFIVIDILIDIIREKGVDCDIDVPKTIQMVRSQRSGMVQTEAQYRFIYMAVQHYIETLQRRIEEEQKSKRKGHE
Assay: FP binding assay, SHP2 PTP domain
Conditions: 100 nM peptide, increasing C-SH2, N-SH2 or PTP domain
Protocol: buffer and stored in 5 mL binding buffer at 4°C. His-tagged 3C protease (0.5 mg; EMBL) was added to the pooled eluted fractions and dialysed using Spectra Por Dialysis Tubing (MWCO 6-8 kDa, 23 mm; Spectrum Labs) in 1 L of binding buffer at 4°C for 3 hours, then overnight in fresh buffer. A new column was prepared by loading 2 mL Ni-NTA Agarose (Invitrogen) as a 50% slurry in EtOH. The column was washed with 10 mL H2O to remove the EtOH and equilibrated with 10 mL binding buffer. The protein/3C protease mixture was loaded onto the column and incubated for 1 hour at 4°C on a rocker. […] Protein purification was monitored by SDS-PAGE using NuPAGE 4-12% Bis-Tris Protein Gels (Invitrogen) run in MOPS buffer (50 mM MOPS, 50 mM Tris-HCl pH 7.7, 1 mM EDTA, 0.1% SDS) followed by Coomassie staining using Coomassie Brilliant Blue (Roth). […]
4. Fluorescence polarization
Fluorescence polarization (FP) was used to measure the binding of FAM-labelled peptides to the SHP2 C-SH2, SHP2 N-SH2, SHP2 PTP, CSK SH2 or Src SH2 domains. […]
concentration of 100 nM in a final volume of 200 µL. […] The FP was immediately measured on a Synergy H1 Microplate Reader (BioTek) with the excitation and emission monitored at 485 nm and 528 nm, respectively, over 30 minutes. FP values were automatically calculated by the Gen5 3.03 (BioTek) software associated with the microplate reader. […]

binding selectivity for C‐SH2 over N‐SH2 and PTP domains: maintained binding selectivity
Compound: CC[C@H](C)[C@H](NC(=O)[C@@H](NC(=O)[C@H](C)NC(=O)[C@H](Cc1ccc(OC(C(=O)O)C(=O)O)cc1)NC(=O)[C@H](CCC(=O)O)NC(=O)[C@@H](NC(=O)[C@H](CCC(N)=O)NC(=O)c1ccc2c(c1)C(=O)OC21c2ccc(O)cc2Oc2cc(O)ccc21)[C@@H](C)O)[C@@H](C)O)C(=O)N[C@@H](CCCCN)C(=O)N[C@@H](Cc1c[nH]cn1)C(=O)N1CCC[C@H]1C(N)=O [peptide 26] (5FAM-QTEY(X1)ATIKHP-NH2)
